Results from patent publication US10189816B2, “Substituted pyridines as inhibitors of human immunodeficiency virus replication” (priority 2015, dated 2019).

Test system: NL-RLuc virus
Assay: Inhibition of HIV replication (NL-RLuc reporter virus in MT-2 cells, luciferase readout)
Assay type: cell-based
Conditions: Human immunodeficiency virus 1, MT2, 120 h, read-out: Activity
Method in brief: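 MT-2 cells infected with NL4-3-derived NL-RLuc reporter virus (Renilla luciferase replacing part of nef) with serial compound dilutions, RPMI 1640 + 10% FBS; 5 days. Growth by luciferase; EC50 from median effect equation, ≥2 experiments.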

Row | SMILES | EC50 [µM]
1 | Cc1cc(C)c(CN2CCc3cc(-c4c(C)nc(C)c([C@H](OC(C)(C)C)C(=O)O)c4N4CCC(C)(C)CC4)ccc3C2)c(C)c1 [Compound 57, (S)-2-(tert-butoxy)-2-(4-(4,4-dimethylpiperidin-1-yl)-2,6-dimethyl-5-(2-(2,4,6-trimethylbenzyl)-1,2,3,4-tetrahydroisoquinolin-6-yl)pyridin-3-yl)acetic acid] | < 0.1
2 | Cc1nc(C)c([C@H](OC(C)(C)C)C(=O)O)c(N2CCC(C)(C)CC2)c1-c1ccc2c(c1)CCN(Cc1c(F)cc(F)cc1F)C2 [Compound 58, (S)-2-(tert-butoxy)-2-(4-(4,4-dimethylpiperidin-1-yl)-2,6-dimethyl-5-(2-(2,4,6-trifluorobenzyl)-1,2,3,4-tetrahydroisoquinolin-6-yl)pyridin-3-yl)acetic acid] | < 0.1
3 | Cc1nc(C)c([C@H](OC(C)(C)C)C(=O)O)c(N2CCC(C)(C)CC2)c1-c1ccc2c(c1)CCN(Cc1ccc(C(C)C)cc1)C2 [Compound 59, (S)-2-(tert-butoxy)-2-(4-(4,4-dimethylpiperidin-1-yl)-5-(2-(4-isopropylbenzyl)-1,2,3,4-tetrahydroisoquinolin-6-yl)-2,6-dimethylpyridin-3-yl)acetic acid] | < 0.1
4 | CCc1ccc(CN2CCc3cc(-c4c(C)nc(C)c([C@H](OC(C)(C)C)C(=O)O)c4N4CCC(C)(C)CC4)ccc3C2)cc1 [Compound 60, (S)-2-(tert-butoxy)-2-(4-(4,4-dimethylpiperidin-1-yl)-5-(2-(4-ethylbenzyl)-1,2,3,4-tetrahydroisoquinolin-6-yl)-2,6-dimethylpyridin-3-yl)acetic acid] | < 0.1
5 | Cc1nc(C)c([C@H](OC(C)(C)C)C(=O)O)c(N2CCC(C)(C)CC2)c1-c1ccc2c(c1)CCN(Cc1cccc(C#N)c1)C2 [Compound 61, (S)-2-(tert-butoxy)-2-(5-(2-(3-cyanobenzyl)-1,2,3,4-tetrahydroisoquinolin-6-yl)-4-(4,4-dimethylpiperidin-1-yl)-2,6-dimethylpyridin-3-yl)acetic acid] | < 0.1
6 | Cc1nc(C)c([C@H](OC(C)(C)C)C(=O)O)c(N2CCC(C)(C)CC2)c1-c1ccc2c(c1)CCN(Cc1ccccc1C#N)C2 [Compound 62, (S)-2-(tert-butoxy)-2-(5-(2-(2-cyanobenzyl)-1,2,3,4-tetrahydroisoquinolin-6-yl)-4-(4,4-dimethylpiperidin-1-yl)-2,6-dimethylpyridin-3-yl)acetic acid] | < 0.1
7 | Cc1nc(C)c([C@H](OC(C)(C)C)C(=O)O)c(N2CCC(C)(C)CC2)c1-c1ccc2c(c1)CCN(Cc1cc(C#N)ccc1F)C2 [Compound 63, (S)-2-(tert-butoxy)-2-(5-(2-(5-cyano-2-fluorobenzyl)-1,2,3,4-tetrahydroisoquinolin-6-yl)-4-(4,4-dimethylpiperidin-1-yl)-2,6-dimethylpyridin-3-yl)acetic acid] | < 0.1
8 | Cc1nc(C)c([C@H](OC(C)(C)C)C(=O)O)c(N2CCC(C)(C)CC2)c1-c1ccc2c(c1)CCN(Cc1ccc(C#N)cc1)C2 [Compound 64, (S)-2-(tert-butoxy)-2-(5-(2-(4-cyanobenzyl)-1,2,3,4-tetrahydroisoquinolin-6-yl)-4-(4,4-dimethylpiperidin-1-yl)-2,6-dimethylpyridin-3-yl)acetic acid] | < 0.1
9 | Cc1cc(C#N)ccc1CN1CCc2cc(-c3c(C)nc(C)c([C@H](OC(C)(C)C)C(=O)O)c3N3CCC(C)(C)CC3)ccc2C1 [Compound 65, (S)-2-(tert-butoxy)-2-(5-(2-(4-cyano-2-methylbenzyl)-1,2,3,4-tetrahydroisoquinolin-6-yl)-4-(4,4-dimethylpiperidin-1-yl)-2,6-dimethylpyridin-3-yl)acetic acid] | < 0.1
10 | Cc1nc(C)c([C@H](OC(C)(C)C)C(=O)O)c(N2CCC(C)(C)CC2)c1-c1ccc2c(c1)CCN(Cc1cc(F)ccc1C(F)(F)F)C2 [Compound 66, (S)-2-(tert-butoxy)-2-(4-(4,4-dimethylpiperidin-1-yl)-5-(2-(5-fluoro-2-(trifluoromethyl)benzyl)-1,2,3,4-tetrahydroisoquinolin-6-yl)-2,6-dimethylpyridin-3-yl)acetic acid] | < 0.1
11 | Cc1nc(C)c([C@H](OC(C)(C)C)C(=O)O)c(N2CCC(C)(C)CC2)c1-c1ccc2c(c1)CCN(Cc1ccc(F)c(C(F)(F)F)c1)C2 [Compound 67, (S)-2-(tert-butoxy)-2-(4-(4,4-dimethylpiperidin-1-yl)-5-(2-(4-fluoro-3-(trifluoromethyl)benzyl)-1,2,3,4-tetrahydroisoquinolin-6-yl)-2,6-dimethylpyridin-3-yl)acetic acid] | < 0.1
12 | Cc1nc(C)c([C@H](OC(C)(C)C)C(=O)O)c(N2CCC(C)(C)CC2)c1-c1ccc2c(c1)CCN(Cc1cc(F)cc(C(F)(F)F)c1)C2 [Compound 68, (S)-2-(tert-butoxy)-2-(4-(4,4-dimethylpiperidin-1-yl)-5-(2-(3-fluoro-5-(trifluoromethyl)benzyl)-1,2,3,4-tetrahydroisoquinolin-6-yl)-2,6-dimethylpyridin-3-yl)acetic acid] | < 0.1
13 | Cc1nc(C)c([C@H](OC(C)(C)C)C(=O)O)c(N2CCC(C)(C)CC2)c1-c1ccc2c(c1)CCN(Cc1ccc(F)cc1C(F)(F)F)C2 [Compound 69, (S)-2-(tert-butoxy)-2-(4-(4,4-dimethylpiperidin-1-yl)-5-(2-(4-fluoro-2-(trifluoromethyl)benzyl)-1,2,3,4-tetrahydroisoquinolin-6-yl)-2,6-dimethylpyridin-3-yl)acetic acid] | < 0.1
14 | Cc1nc(C)c([C@H](OC(C)(C)C)C(=O)O)c(N2CCC(C)(C)CC2)c1-c1ccc2c(c1)CCN(Cc1cc(C(F)(F)F)ccc1F)C2 [Compound 70, (S)-2-(tert-butoxy)-2-(4-(4,4-dimethylpiperidin-1-yl)-5-(2-(2-fluoro-5-(trifluoromethyl)benzyl)-1,2,3,4-tetrahydroisoquinolin-6-yl)-2,6-dimethylpyridin-3-yl)acetic acid] | < 0.1
15 | Cc1cc(CN2CCc3cc(-c4c(C)nc(C)c([C@H](OC(C)(C)C)C(=O)O)c4N4CCC(C)(C)CC4)ccc3C2)ccc1F [Compound 71, (S)-2-(tert-butoxy)-2-(4-(4,4-dimethylpiperidin-1-yl)-5-(2-(4-fluoro-3-methylbenzyl)-1,2,3,4-tetrahydroisoquinolin-6-yl)-2,6-dimethylpyridin-3-yl)acetic acid] | < 0.1
16 | Cc1nc(C)c([C@H](OC(C)(C)C)C(=O)O)c(N2CCC(C)(C)CC2)c1-c1ccc2c(c1)CCN(Cc1ccc(F)c(C)c1C)C2 [Compound 72, (S)-2-(tert-butoxy)-2-(4-(4,4-dimethylpiperidin-1-yl)-5-(2-(4-fluoro-2,3-dimethylbenzyl)-1,2,3,4-tetrahydroisoquinolin-6-yl)-2,6-dimethylpyridin-3-yl)acetic acid] | < 0.1
17 | Cc1ccc(CN2CCc3cc(-c4c(C)nc(C)c([C@H](OC(C)(C)C)C(=O)O)c4N4CCC(C)(C)CC4)ccc3C2)c(F)c1F [Compound 73, (S)-2-(tert-butoxy)-2-(5-(2-(2,3-difluoro-4-methylbenzyl)-1,2,3,4-tetrahydroisoquinolin-6-yl)-4-(4,4-dimethylpiperidin-1-yl)-2,6-dimethylpyridin-3-yl)acetic acid] | < 0.1
18 | Cc1ccc(F)c(CN2CCc3cc(-c4c(C)nc(C)c([C@H](OC(C)(C)C)C(=O)O)c4N4CCC(C)(C)CC4)ccc3C2)c1 [Compound 74, (S)-2-(tert-butoxy)-2-(4-(4,4-dimethylpiperidin-1-yl)-5-(2-(2-fluoro-5-methylbenzyl)-1,2,3,4-tetrahydroisoquinolin-6-yl)-2,6-dimethylpyridin-3-yl)acetic acid] | < 0.1
19 | Cc1cc(CN2CCc3cc(-c4c(C)nc(C)c([C@H](OC(C)(C)C)C(=O)O)c4N4CCC(C)(C)CC4)ccc3C2)cc(C)c1F [Compound 75, (S)-2-(tert-butoxy)-2-(4-(4,4-dimethylpiperidin-1-yl)-5-(2-(4-fluoro-3,5-dimethylbenzyl)-1,2,3,4-tetrahydroisoquinolin-6-yl)-2,6-dimethylpyridin-3-yl)acetic acid] | < 0.1
20 | Cc1cc(CN2CCc3cc(-c4c(C)nc(C)c([C@H](OC(C)(C)C)C(=O)O)c4N4CCC(C)(C)CC4)ccc3C2)cc(F)c1F [Compound 76, (S)-2-(tert-butoxy)-2-(5-(2-(3,4-difluoro-5-methylbenzyl)-1,2,3,4-tetrahydroisoquinolin-6-yl)-4-(4,4-dimethylpiperidin-1-yl)-2,6-dimethylpyridin-3-yl)acetic acid] | < 0.1
21 | Cc1nc(C)c([C@H](OC(C)(C)C)C(=O)O)c(N2CCC(C)(C)CC2)c1-c1ccc2c(c1)CCN(Cc1ccccc1C(C)C)C2 [Compound 77, (S)-2-(tert-butoxy)-2-(4-(4,4-dimethylpiperidin-1-yl)-5-(2-(2-isopropylbenzyl)-1,2,3,4-tetrahydroisoquinolin-6-yl)-2,6-dimethylpyridin-3-yl)acetic acid] | < 0.1
22 | Cc1cc(C)c(CN2CCc3cc(-c4c(C)nc(C)c([C@H](OC(C)(C)C)C(=O)O)c4N4CCC(C)(C)CC4)ccc3C2)cc1C [Compound 78, (S)-2-(tert-butoxy)-2-(4-(4,4-dimethylpiperidin-1-yl)-2,6-dimethyl-5-(2-(2,4,5-trimethylbenzyl)-1,2,3,4-tetrahydroisoquinolin-6-yl)pyridin-3-yl)acetic acid] | < 0.1
23 | Cc1cc(C)cc(CN2CCc3cc(-c4c(C)nc(C)c([C@H](OC(C)(C)C)C(=O)O)c4N4CCC(C)(C)CC4)ccc3C2)c1 [Compound 79, (S)-2-(tert-butoxy)-2-(5-(2-(3,5-dimethylbenzyl)-1,2,3,4-tetrahydroisoquinolin-6-yl)-4-(4,4-dimethylpiperidin-1-yl)-2,6-dimethylpyridin-3-yl)acetic acid] | < 0.1
24 | Cc1cccc(CN2CCc3cc(-c4c(C)nc(C)c([C@H](OC(C)(C)C)C(=O)O)c4N4CCC(C)(C)CC4)ccc3C2)c1C [Compound 80, (S)-2-(tert-butoxy)-2-(5-(2-(2,3-dimethylbenzyl)-1,2,3,4-tetrahydroisoquinolin-6-yl)-4-(4,4-dimethylpiperidin-1-yl)-2,6-dimethylpyridin-3-yl)acetic acid] | < 0.1

Same assay, conditions: Human immunodeficiency virus 1, MT2, 120 h, read-out: EC50 μM

Row | SMILES | EC50 [µM]
25 | Cc1nc(C)c([C@H](OC(C)(C)C)C(=O)O)c(N2CCC(C)(C)CC2)c1-c1ccc2c(c1)CCN(Cc1ccc(C(C)C)cc1)C2 [Compound 59, (S)-2-(tert-butoxy)-2-(4-(4,4-dimethylpiperidin-1-yl)-5-(2-(4-isopropylbenzyl)-1,2,3,4-tetrahydroisoquinolin-6-yl)-2,6-dimethylpyridin-3-yl)acetic acid] | 0.058
26 | Cc1nc(C)c([C@H](OC(C)(C)C)C(=O)O)c(N2CCC(C)(C)CC2)c1-c1ccc2c(c1)CCN(Cc1cc(F)ccc1C(F)(F)F)C2 [Compound 66, (S)-2-(tert-butoxy)-2-(4-(4,4-dimethylpiperidin-1-yl)-5-(2-(5-fluoro-2-(trifluoromethyl)benzyl)-1,2,3,4-tetrahydroisoquinolin-6-yl)-2,6-dimethylpyridin-3-yl)acetic acid] | 0.013
27 | Cc1ccc(CN2CCc3cc(-c4c(C)nc(C)c([C@H](OC(C)(C)C)C(=O)O)c4N4CCC(C)(C)CC4)ccc3C2)c(F)c1F [Compound 73, (S)-2-(tert-butoxy)-2-(5-(2-(2,3-difluoro-4-methylbenzyl)-1,2,3,4-tetrahydroisoquinolin-6-yl)-4-(4,4-dimethylpiperidin-1-yl)-2,6-dimethylpyridin-3-yl)acetic acid] | 0.007
28 | Cc1cccc(CN2CCc3cc(-c4c(C)nc(C)c([C@H](OC(C)(C)C)C(=O)O)c4N4CCC(C)(C)CC4)ccc3C2)c1C [Compound 80, (S)-2-(tert-butoxy)-2-(5-(2-(2,3-dimethylbenzyl)-1,2,3,4-tetrahydroisoquinolin-6-yl)-4-(4,4-dimethylpiperidin-1-yl)-2,6-dimethylpyridin-3-yl)acetic acid] | 0.003
